This is an account of results in patent publication US10196411B2, “Tizoxanide phosphate and alkane sulfonate and pharmaceutical applications thereof” (priority 2014, dated 2019).

The nature of data set [1]: Pharmacokinetic evaluation of oral administration and intravenous injection in rats. In kind it is in vivo, SD rats. As to conditions: male, SD, rat, in vivo, po, 12.5 mg/kg. Here is the method:
9 SD rats (SPF grade, male, 200±10 g), provided by Laboratory Animal Center of the Academy of Military Medical Sciences, were grouped randomly, 3 […] for each group.
[…]; The plasma was separated and stored in a −20° C. refrigerator for further detection.
(2) Oral administration group of Compound 3, a dose of 15 mg/kg (equivalent to a dose of 41 μmol/kg tizoxanide); […]; The plasma was separated and stored in a −20° C. refrigerator for further detection.
(3) Oral administration group of nitazoxanide: a dose of 12.5 mg/kg (equivalent to a dose of 41 μmol/kg tizoxanide); administration volume: 2 mL/200 g rat (preparation of a test solution: 10.96 mg nitazoxanide was weighed accurately and dissolved by adding 600 μL DMSO, and […] sterile water was added to prepare a clear solution at 1.25 mg/mL); after oral administration of nitazoxanide at 12.5 mg/kg in rats, blood was taken before administration and at 0.08, 0.25, 0.5, 1, 2, 4, 6, 8, 12 and 24 h after administration. The plasma was separated and stored in a −20° C. refrigerator for further detection.
Treatment of plasma sample: 100 μL plasma was taken, 300 μL acetonitrile solution containing internal standard (500 nmol/L a solution of tolbutamide in acetonitrile) was added, and then mixed well. The mixture was vortexed for 1 min, and centrifuged at 4° C. for 10 min (at a relative centrifugal force (RCF) of 14000 g). The supernatant was taken, and 20 μL was drawn for LC/MS/MS analysis, so as to detect the blood concentration of tizoxanide and the prototype drug.

Data set [2] concerns Mycobacterium tuberculosis. As to conditions: cited from earlier work.
The test system of a further data set is Helicobacter pylori. As to conditions: 103 strains of Helicobacter pylori; cited from earlier work.
The test system of the next data set is PR8 influenza virus. As to conditions: PR8 influenza virus in MDCK cells; cited from earlier work.
The conditions of data set [3]: in vivo, cited from earlier work.
For data set [4] the following is noted: in words.
A short description of data set [5]: Pharmacokinetic evaluation of oral administration in mice (tizoxanide in blood by LC/MS/MS). The data set is classed as in vivo, ICR mice. Conditions: in words; for conversion to the active form tizoxanide in vivo: after oral administration in mice; for Area Under concentration-time Curve (AUC) compared to nitazoxanide: oral administration in mice. Here is the method:
Sample preparation: 32.57 μmol of a test compound was dissolved in 100 μL dimethyl sulfoxide (DMSO), with the addition of 10 mL 0.5% Carboxyl Methyl Cellulose Sodium (CMC-Na) solution, to prepare a sample at 3.257 μmol/mL.
The test compounds refer to the compounds prepared in Examples of the invention and the positive control compound nitazoxanide. The experiment was carried out in two batches, wherein the first hatch of test compounds were Compound 1, 2, 6, 7, 8, 9 and the positive control compound nitazoxanide; and the second batch of test compounds were Compound 3, 4, 5, 12, 14, 17, 18 and positive control compound nitazoxanide.
Experimental method: ICR mice (SPS grade, male, […]), purchased from Beijing Vital River Laboratory Animal Technology Co., Ltd., were grouped randomly depending on body weight, 3 mice for each group. Nitazoxanide and a test compound were intragastrically administered separately to each mouse at a dose of 10 mL/kg (i.e., 32.57 μmol/kg of corresponding drug to each mouse), wherein nitazoxanide was used as positive control, and 0.1 ml blood was taken from veins of Fundus Oculi at 0.08, 0.25, 0.5, 1, 2, 4, 6, 8 and 12 h after administration, placed in a Heparin Sodium-containing centrifuge tube, and centrifuged for 20 min (at a relative centrifugal force (RCF) of 3000 g). The plasma was taken and stored in a −20° C. refrigerator for further detection.
During the detection, 50 μL plasma was taken, with the addition of an internal standard solution (5000 ng/mL glipizide aqueous solution, 10 μL), and the addition of acetonitrile (200 μL), and then mixed well. The mixture was vortexed for 3 min, and centrifuged for 10 min (at a relative centrifugal force (RCF) of 8500 g). The supernatant (50 μL) was well mixed with water (50 μL), and 10 μL was drawn for LC/MS/MS analysis, so as to detect the blood concentration of tizoxanide. The results are shown in Table 1, Table 2, Table 3, Table 4, FIG. 1, and FIG. 2.

≈ marks a conversion by molar mass, not a printed value. Counter-ions that a name gives are not always drawn.

In data set [1], `CC(=O)Oc1ccccc1C(=O)Nc1ncc([N+](=O)[O-])s1` [nitazoxanide, 2-acetoxy-N-(5-nitro-2-thiazolyl)benzamide] yielded a Vz/F of 32.67 ± 16.81 L/kg. In addition, the “minimal inhibitory concentration (MIC), median value” in data set [2] was 16 µg/mL (≈ 52.1 µM). In the data set with Helicobacter pylori, the “50% minimal inhibitory concentration (MIC50)” value is 1 µg/mL and the “90% minimal inhibitory concentration (MIC90)” value is 4 µg/mL. In addition, in the data set on PR8 influenza virus, the EC50 was 1 µg/mL (≈ 3.25 µM) and the EC90 is 7 µg/mL (≈ 22.8 µM). Further, the “detection of nitazoxanide in plasma, urine, bile and feces” value in data set [3] (po) is on record as “not detectable”. For the same compound, in data set [3], the “fraction of the oral dose excreted by feces” value is given as “about ⅔” and the “fraction of the oral dose excreted by urine” value was “about ⅓”.

For the compound `O=C(Nc1ncc([N+](=O)[O-])s1)c1ccccc1OP(=O)(O)O` [Compound 5, 2-(5-nitrothiazol-2-yl-carbamoyl)phenyl phosphate calcium salt], the “solubility compared to nitazoxanide” value in data set [4] is on record as “much better”.

As to `O=C(Nc1ncc([N+](=O)[O-])s1)c1ccccc1O` [tizoxanide], in the data set with Helicobacter pylori, the “50% minimal inhibitory concentration (MIC50)” value was 1 µg/mL and the “90% minimal inhibitory concentration (MIC90)” value was 4 µg/mL.

With `CS(=O)(=O)Oc1ccccc1C(=O)Nc1ncc([N+](=O)[O-])s1` [Compound 6, 2-(5-nitrothiazol-2-yl-carbamoyl)phenyl methanesulfonate], the melting point was in the range of 188 to 190 °C. In data set [5], the “conversion to the active form tizoxanide in vivo” value was “relatively complete” and the “Area Under concentration-time Curve (AUC) compared to nitazoxanide” value is “much higher”.

As to `CCCS(=O)(=O)Oc1ccccc1C(=O)Nc1ncc([N+](=O)[O-])s1` [Compound 8, 2-(5-nitrothiazol-2-yl-carbamoyl)phenyl 1-propanesulfonate], the melting point is 144 to 146 °C. In data set [5], the “conversion to the active form tizoxanide in vivo” value was “relatively complete” and the “Area Under concentration-time Curve (AUC) compared to nitazoxanide” value was “much higher”.

Broadly, the EC50 is the concentration at which the effect is half-maximal. As a reminder, the EC90 is the concentration needed for an effect of 90%. Broadly, the melting point is the temperature, or range, at which the solid turns liquid.
